Measured values taken from patent US20090214529A9, “KINESIN INHIBITORS” (TaiGen Biotechnology Co., Ltd., priority 2007, published 2009).

Tested on: tumor cell
Experiment: Cytotoxicity assay (MTS)
Assay type: cell-based
Conditions: 72 h; incubation for three days; read-out: IC50, tumor cell growth inhibition (MTS)
Experimental: The efficacy of a test compound in inhibiting tumor cell growth was analyzed using a MTS assay. The MTS assay is a calorimetric method for the determination of viable cells in proliferation by using a tetrazolium compound (3-(4,5-dimethylthiazol-2-yl)-5-(3-[…])-2-(4-sulfophenyl)-2H-tetrazolium, inner salt; MTS) and an electron-coupling agent (phenazine methosulfate; PMS). The MTS reagent is converted by dehydrogenase enzymes in metabolically active cells into a formazan that is soluble in a tissue culture medium.
In this assay, tumor cell suspensions (30 μl/well) were seeded into 384-well flat-bottomed tissue culture plates at an appropriate density overnight. A fresh medium (3 μl/well) containing varying concentrations of a test compound or vehicle was added to the culture followed by incubation for three days. At the end of the incubation, all plates were processed simultaneously as follows: The culture medium was aspirated, a MTS cell proliferation assay (Promega) solution (30 μl/well) was added, and the plates were incubated at 37° C. for about 2 hours. Absorbance (a parameter proportional to the cell mass) was measured at 490 nm using a Multiskan (Thermo Electron Corporation, Waltham, Mass.). Inhibition effects were expressed as corrected T/C values for each test compound according to the following equation:
T/C=(T−Blank)/(C−Blank)×100(%),
where T is the mean absorbance of the treated cells, C is the mean absorbance of the controls, and Blank is the mean absorbance of the cell free well.

| Compound | IC50 [µM] |
| --- | --- |
| CCC(c1nc2c(oc3ccccc32)c(=O)n1Cc1ccccc1)N(CCN(C)C)C(=O)c1ccc(Br)cc1 (stereo not shown) [Compound 23] | < 30 |
| Cc1ccc(C(=O)N(CCN)[C@@H](c2nc3c(oc4ccc(F)cc43)c(=O)n2Cc2ccc(C(F)(F)F)o2)C(C)C)cc1F [Compound 214] | < 30 |
| CC(C)C(c1nc2c(oc3ccc(F)cc32)c(=O)n1Cc1ccccc1)N(CCN)C(=O)c1ccc(Cl)cc1 (stereo not shown) [Compound 64] | < 30 |
| Cc1ccc(C(=O)N(CCCN)C(c2nc3cc4[nH]ccc4cc3c(=O)n2Cc2cccs2)C(C)C)cc1 (stereo not shown) [Compound 2] | < 30 |
| Cc1ccc(C(=O)N(CCN)C(c2nc3c(oc4ccccc43)c(=O)n2Cc2ccc(Cl)o2)C(C)C)cc1 (stereo not shown) [Compound 162] | < 30 |
| CC(C)C(c1nc2c(sc3ccccc32)c(=O)n1Cc1ccc(Br)s1)N(CCCN)C(=O)c1ccc(Br)cc1 (stereo not shown) [Compound 145] | < 30 |
| Cc1ccc(C(=O)N(CCCN)C(c2nc3c(oc4ccc(F)cc43)c(=O)n2Cc2ccc(Br)o2)C(C)C)cc1 (stereo not shown) [Compound 82] | < 30 |
| Cc1ccc(C(=O)N(CCN)C(c2nc3c(oc4ccc(Cl)cc43)c(=O)n2Cc2cc(C)cs2)C(C)C)cc1 (stereo not shown) [Compound 94] | < 30 |
| CC(C)[C@H](c1nc2c(oc3ccc(F)cc32)c(=O)n1Cc1ccc(Br)s1)N(CCN)C(=O)c1ccc(Br)cc1 [Compound 210] | < 30 |
| CNC(=O)c1ccc(Cn2c(C(C(C)C)N(CCN)C(=O)c3ccc(C)cc3)nc3c(oc4ccc(F)cc43)c2=O)o1 (stereo not shown) [Compound 118] | < 30 |
| Cc1ccc(C(=O)N(CCN)[C@@H](c2nc3c(oc4ccc(F)cc43)c(=O)n2Cc2ccccc2)C(C)C)cc1F [Compound 192] | < 30 |
| CC(C)C(c1nc2c(oc3ccc(F)cc32)c(=O)n1Cc1ccc(C#N)s1)N(CCN)C(=O)c1ccc(Cl)cc1 (stereo not shown) [Compound 172] | < 30 |
| Cc1ccc(Cn2c([C@@H](C(C)C)N(CCN)C(=O)c3ccc(C)cc3)nc3c(oc4ccc(F)cc43)c2=O)cc1 [Compound 180] | < 30 |
| CCC(c1nc2c(oc3ccc(Cl)cc32)c(=O)n1Cc1ccccc1)N(CCN)S(=O)(=O)c1ccc(C)cc1 (stereo not shown) [Compound 34] | < 30 |
| CCC(c1nc2c(oc3ccccc32)c(=O)n1Cc1ccccc1)N(CCCN(C)C)C(=O)c1ccc(Br)cc1 (stereo not shown) [Compound 20] | < 30 |
| CC(C)C(c1nc2c(sc3ccccc32)c(=O)n1Cc1ccc(Br)s1)N(CCCN)C(=O)c1ccc(Cl)cc1 (stereo not shown) [Compound 147] | < 30 |
| CC(C)C(c1nc2n(c(=O)c1Cc1ccccc1)Cc1ccccc1-2)N(CCCN)C(=O)c1ccc(Cl)cc1 (stereo not shown) [Compound 151] | < 30 |
| Cc1ccc(C(=O)N(CCN)C(c2nc3c(oc4ccccc43)c(=O)n2Cc2ccc(C#N)s2)C(C)C)cc1 (stereo not shown) [Compound 163] | < 30 |
| Cc1ccc(C(=O)N(CCN)[C@@H](c2nc3c(oc4ccc(F)cc43)c(=O)n2Cc2ccc(Br)s2)C(C)C)c(F)c1F [Compound 209] | < 30 |
| Cc1ccc(C(=O)N(CCN)C(c2nc3c(oc4ccc(C)cc43)c(=O)n2Cc2ccccc2)C(C)C)cc1 (stereo not shown) [Compound 39] | < 30 |
| Cc1ccc(C(=O)N(CCCN)C(c2nc3c(oc4ccc(F)cc43)c(=O)n2Cc2ccc(Br)s2)C(C)C)cc1 (stereo not shown) [Compound 70] | < 30 |

| Compound | IC50 [µM] |
| --- | --- |
| Cc1ccc(Cn2c([C@@H](C(C)C)N(CCN)C(=O)c3ccc(Cl)cc3)nc3c(oc4ccc(F)cc43)c2=O)cc1 [Compound 184] | < 30 |
| Cc1ccc(C(=O)N(CCCN)C(c2nc3c(oc4ccc(Cl)cc43)c(=O)n2Cc2cccc(F)c2)C(C)C)cc1 (stereo not shown) [Compound 97] | < 30 |
| Cc1ccc(C(=O)N(CCCN)C(c2nc3c(sc4ccccc43)c(=O)n2Cc2cccs2)C(C)C)cc1 (stereo not shown) [Compound 148] | < 30 |
| Cc1ccc(C(=O)N(CCN)[C@@H](c2nc3c(oc4ccc(F)cc43)c(=O)n2Cc2ccsc2)C(C)C)cc1 [Compound 194] | < 30 |
| CC(C)C(c1nc2c(sc3ccc(F)cc32)c(=O)n1Cc1ccccc1)N(CCCN)C(=O)c1ccc(Cl)cc1 (stereo not shown) [Compound 139] | < 30 |
| Cc1ccc(C(=O)N(CCCN)C(c2nc3c(oc4ccc(F)cc43)c(=O)n2Cc2ccc(C#N)s2)C(C)C)cc1 (stereo not shown) [Compound 72] | < 30 |
| Cc1csc(Cn2c(C(C(C)C)N(CCN)C(=O)c3ccc(Br)cc3)nc3c(oc4ccc(F)cc43)c2=O)c1 (stereo not shown) [Compound 167] | < 30 |
| Cc1ccc(C(=O)N(CCN)C(c2nc3c(oc4ccccc43)c(=O)n2Cc2ccccc2)C(C)C)cc1 (stereo not shown) [Compound 25] | < 30 |
| CCC(c1nc2c(oc3ccc(Cl)cc32)c(=O)n1Cc1ccccc1)N(CCN)C(=O)c1ccc(C)cc1 (stereo not shown) [Compound 32] | < 30 |
| COC(=O)c1ccc(Cn2c(C(C(C)C)N(CCN)C(=O)c3ccc(C)cc3)nc3c(oc4ccc(F)cc43)c2=O)o1 (stereo not shown) [Compound 102] | < 30 |
| Cc1ccc(C(=O)N(CCN)C(c2nc3c(oc4ccc(Cl)cc43)c(=O)n2Cc2ccco2)C(C)C)cc1 (stereo not shown) [Compound 125] | < 30 |
| CC(C)[C@H](c1nc2c(oc3ccc(F)cc32)c(=O)n1Cc1ccsc1)N(CCN)C(=O)c1ccc(Br)cc1 [Compound 202] | < 30 |
| CC(C)C(c1nc2c(oc3ccc(F)cc32)c(=O)n1Cc1ccc(Cl)s1)N(CCN)C(=O)c1ccc(Cl)cc1 (stereo not shown) [Compound 68] | < 30 |
| Cc1ccc(C(=O)N(CCN)C(c2nc3c(oc4ccc(F)cc43)c(=O)n2Cc2cccc(Cl)c2)C(C)C)cc1 (stereo not shown) [Compound 122] | < 30 |
| Cc1ccc(C(=O)N(CCN)C(c2nc3c(oc4ccc(F)cc43)c(=O)n2Cc2cccc(Br)c2)C(C)C)cc1 (stereo not shown) [Compound 124] | < 30 |
| Cc1ccc(C(=O)N(CCCN)C(c2nc3c(oc4ccc(Cl)cc43)c(=O)n2Cc2ccc(C#N)s2)C(C)C)cc1 (stereo not shown) [Compound 47] | < 30 |
| Cc1ccc(C(=O)N(CCN)[C@@H](c2nc3c(oc4ccc(F)cc43)c(=O)n2Cc2cc(Br)co2)C(C)C)cc1 [Compound 217] | < 30 |
| Cc1ccc(C(=O)N(CCCN)C(c2nc3c(sc4ccccc43)c(=O)n2Cc2ccc(Cl)s2)C(C)C)cc1F (stereo not shown) [Compound 142] | < 30 |
| Cc1ccc(C(=O)N(CCCN)C(c2nc3c(oc4ccc(F)cc43)c(=O)n2Cc2cccc(F)c2)C(C)C)cc1 (stereo not shown) [Compound 80] | < 30 |
| Cc1ccc(C(=O)N(CCN)C(c2nc3c(oc4ccc(Br)cc43)c(=O)n2Cc2ccccc2)C(C)C)cn1 (stereo not shown) [Compound 59] | < 30 |
| Cc1ccc(C(=O)N(CCCN)C(c2nc3c(oc4ccc(F)cc43)c(=O)n2Cc2ccccc2)C(C)C)cc1 (stereo not shown) [Compound 63] | < 30 |

| Compound | IC50 [µM] |
| --- | --- |
| Cc1ccc(C(=O)N(CCCN)C(c2nc3c(oc4ccc(F)cc43)c(=O)n2Cc2ccsc2)C(C)C)cc1 (stereo not shown) [Compound 76] | < 30 |
| Cc1ccc(C(=O)N(CCN)[C@@H](c2nc3c(oc4ccc(F)cc43)c(=O)n2Cc2ccc(Cl)o2)C(C)C)cc1F [Compound 190] | < 30 |
| Cc1ccc(C(=O)N(NCCN)C(c2nc3c(sc4ccccc43)c(=O)n2Cc2ccc(Br)s2)C(C)C)cc1 (stereo not shown) [Compound 149] | < 30 |
| Cc1ccc(C(=O)N(CCCN)C(c2nc3c(sc4ccccc43)c(=O)n2Cc2ccc(Br)s2)C(C)C)cc1F (stereo not shown) [Compound 146] | < 30 |
| Cc1ccc(C(=O)N(CCN)[C@@H](c2nc3c(oc4ccc(F)cc43)c(=O)n2Cc2ccc(Br)o2)C2CC2)cc1 [Compound 223] | < 30 |
| Cc1ccc(C(=O)N(CCN)C(c2nc3c(oc4ccc(F)cc43)c(=O)n2Cc2ccoc2)C(C)C)cc1 (stereo not shown) [Compound 128] | < 30 |
| Cc1ccc(C(=O)N(CCN)C(c2nc3c(oc4ccc(F)cc43)c(=O)n2Cc2ccc(C#N)s2)C(C)C)cc1F (stereo not shown) [Compound 174] | < 30 |
| Cc1ccc(C(=O)N(CCCN)C(c2nc3c(oc4cccc(F)c43)c(=O)n2Cc2ccccc2)C(C)C)cc1 (stereo not shown) [Compound 61] | < 30 |
| Cc1ccc(C(=O)N(CCN)[C@@H](c2nc3c(oc4ccc(F)cc43)c(=O)n2Cc2cccs2)C(C)C)cc1F [Compound 200] | < 30 |
| CCC(c1nc2c(oc3ccccc32)c(=O)n1Cc1ccccc1)N(CCN)C(=O)c1ccc(C)cc1 (stereo not shown) [Compound 21] | < 30 |
| CC(C)[C@H](c1nc2c(oc3ccc(F)cc32)c(=O)n1Cc1ccccc1)N(CCN)C(=O)c1ccc(C(F)(F)F)cc1 [Compound 207] | < 30 |
| Cc1ccc(C(=O)N(CCCN)C(c2nc3c(sc4ccccc43)c(=O)n2Cc2ccc(Br)s2)C(C)C)cc1 (stereo not shown) [Compound 144] | < 30 |
| CCC(c1nc2c(oc3ccc(Cl)cc32)c(=O)n1Cc1ccccc1)N(CCCN)S(=O)(=O)c1ccc(C)cc1 (stereo not shown) [Compound 33] | < 30 |
| Cc1ccc(C(=O)N(CCCN)C(c2nc3c(oc4ccc(F)cc43)c(=O)n2Cc2cc(Br)co2)C(C)C)cc1 (stereo not shown) [Compound 93] | < 30 |
| CC(C)C(c1nc2c(sc3ccccc32)c(=O)n1Cc1ccc(Cl)s1)N(CCCN)C(=O)c1ccc(Cl)cc1 (stereo not shown) [Compound 143] | < 30 |
| Cc1ccc(C(=O)N(CCN)[C@@H](c2nc3c(oc4ccc(F)cc43)c(=O)n2Cc2ccc(Cl)o2)C(C)C)cc1 [Compound 189] | < 30 |
| CC(C)[C@H](c1nc2c(oc3ccc(F)cc32)c(=O)n1Cc1ccoc1)N(CCN)C(=O)c1ccc(Cl)cc1 [Compound 198] | < 30 |
| Cc1ccc(C(=O)N(CCCN)C(c2nc3cc4[nH]c(Br)cc4cc3c(=O)n2Cc2cccs2)C(C)C)cc1 (stereo not shown) [Compound 1] | < 30 |
| Cc1ccc(C(=O)N(CCN)C(c2nc3c(oc4ccc(F)cc43)c(=O)n2Cc2cccc(C)c2)C(C)C)cc1 (stereo not shown) [Compound 104] | < 30 |
